Patent US12544373B2, “Treatment of cancer, inflammatory diseases and autoimmune diseases” (Usher III Initiative, Inc., priority 2020, dated 2026)
Where “and” joins values, the source holds several entries; their conditions need not be identical. Identical values can stand only once. Like-named read-outs stand apart in the source and are kept apart here.

What was measured:
OVXF 899 = assay: CellTiter-Blue 2D monolayer assay (Example 1), ovarian; format: cell-based, human; details: for Test/Control (%): 72 h
Protocol: (§1) Compound 85 was assessed in 10 human tumor cell lines (see Table 3) for anti-cancer activity in vitro using a CellTiter-Blue® based 2D monolayer assay.
(§2) CellTiter-Blue® Cell Viability Assay: Tumor cells were grown at 37° C. in a humidified atmosphere with 5% CO2 in RPMI medium, supplemented with 10% (v/v) fetal calf serum and 50 μg/ml gentamicin (140 μl/well). Cultures were incubated at 37° C. and 5% CO2 in a humidified atmosphere. After 24 hours, 10 μl of Compound 85 was added, and left on the cells for another 72 hours (incubation period). Compound 85 was tested at 5 concentrations (0.003 μM, 0.03 μM, 0.3 μM, 3 μM, and 30 μM) and serially diluted in DMSO, mixed with cell culture medium, and added to the assay plates by using a Tecan Freedom EVO 200 robotic platform. The DMSO concentration was kept constant at 0.3% yip across the assay plate. Every 96 well plate included six DMSO-treated control wells and Compound 85-treated wells in duplicate at 5 concentrations. Viability of cells was quantified using the CellTiter-Blue® cell viability assay (Promega G8081). After incubation of cells, the CellTiter-Blue® reagent was brought to ambient temperature. Next, 20 μl of CellTiter-Blue® reagent were added to each well. After incubation tier up to 4 hours, fluorescence (FU) was measured using the EnSpire® multimode plate reader (Perkin Elmer) ([…]).
(§3) Data Evaluation: Sigmoidal concentration-response curves were fitted to the data points (test-versus-control; T/C values) obtained for each tumor model using 4 parameter non-linear curve fit (Charles River DRS Datawarehouse Software). Drug effects are expressed in terms of the percentage of the fluorescence signal, obtained by comparison of the mean signal in the treated wells with the mean signal of the untreated controls (T/C-value [%]) (Table 4). IC50 and IC70 values were reported as relative and absolute IC50 and IC70 values (Table 5). The absolute IC50 and IC70 values reflect the concentration of Compound 85 that achieves T/C=50% and T/C=30%, respectively. The relative IC50 value is the concentration of Compound 85 that gives a response half way between the top and bottom plateau of the sigmoidal concentration-response curve (inflection point of the curve).

OVXF A2780 = assay: as above; format: cell-based, human; details: for Test/Control (%): 72 h
Protocol: as §1, §2, §3

MAXFTN 401 = assay: CellTiter-Blue Cell Viability Assay (Example 2), breast; format: cell-based, human; details: for T/C %: 72 h
Text: (§4) The CellTiter-Blue® Cell Viability Assay was used to assess the viability of cells from various cancer cell lines, in the presence or absence of Compound 85 (at different concentrations). This assay provides a homogeneous, fluorometric method for estimating the number of viable cells present in multi-well plates. Viable cells retain the ability to reduce resazurin to resorufin, which is highly fluorescent. […] The fluorescence produced is proportional to the number of viable cells. There is a linear relationship between cell number and fluorescence.
(§5) Cancer cells (see Table 6) were harvested from exponential phase cultures, counted and plated in 96 well flat-bottom microtiter plates, at a cell density 6,000-20,000 cells/well, depending on the cell line's growth rate. The culture medium was supplemented with 10% (v/v) foetal calf serum and 50 μg/mL gentamicin (140 μL/well). Cultures were incubated at 37° C. and 5% CO2 in a humidified atmosphere.
(§6) Compound 85 was serially diluted in DMSO, and five Compound 85 concentrations in half-log increments were used: 0.03 μM, 0.09 μM, 0.30 μM, 1.0 μM, and 3.0 μM. After 24 h, 10 μL of Compound 85 (dissolved in DMSO) or control (DMSO) medium were added, in duplicates, and left on the cells for another 72 h. Compound 85 solutions were added to the assay plates using a Tecan Freedom EVO 200 robotic platform. The DMSO concentration was kept constant at 0.3% v/v across the assay plate.
(§7) After incubation of up to 72 hours, fluorescence (FU) was measured using the EnSpire® multimode plate reader (Perkin Elmer) (excitation λ=570 nm, emission λ=600 nm).
(§8) Cancer cell lines used: Compound 85's anti-cancer effect was tested in 20 human cancer-cell lines representing nine cancer types (Table 6).
(§9) The percentage of viable cells in the presence of Compound 85 (Test condition, T), at different concentrations, are presented in Table 7 and expressed as a percentage of the number of viable cells in the presence of DMSO without Compound 85 (Control condition, C).
(§10) The relative IC50 is determined as the Compound 85 concentration giving a response halfway between the maximum cell viability signal (i.e., a 100% cell viability, no Compound 85 response) and the minimal viability signal (i.e. maximum cell viability inhibition achieved by Compound 85), in a sigmoidal concentration-effect curve.
(§11) The absolute IC50 is determined as the concentration that is associated with a T/C ratio of 50%.

PRXF DU-145 = assay: CellTiter-Blue Cell Viability Assay (Example 2), prostate; format: cell-based, human; details: for T/C %: 72 h
Text: as §4, §5, §6, §7, §8, §9, §10, §11

PRXF PC-3 = assay: as above; format: cell-based, human; details: for T/C %: 72 h
Text: as §4, §5, §6, §7, §8, §9, §10, §11

[1] = tested on: 20 human cancer-cell lines representing nine cancer types; assay: CellTiter-Blue Cell Viability Assay (Example 2), whole panel; format: cell-based
Text: as §4, §5, §6, §7, §8, §9, §10, §11

[2] = geometric mean over human cancer cell lines of Table 8

CC(C)(O)Cn1nc(-c2ccccc2)c2c(Cl)c(-c3ccccc3)nnc21 [Compound 85]
Rel. IC70 (OVXF 899): 0.739 µM
Test/Control (%) (OVXF 899; 0.003 μM): 108%
Test/Control (%) (OVXF 899; 0.03 μM): 106%
Test/Control (%) (OVXF 899; 0.3 μM): 86%
Test/Control (%) (OVXF 899; 3 μM): 2%
Test/Control (%) (OVXF 899; 30 μM): 1%
Abs. IC70 (OVXF 899; T/C=30%): 0.775 µM
IC50 (OVXF 899; T/C=50%, read-out: Abs. IC50): 0.553 µM
Bot. (%) (OVXF 899; bottom plateau of curve): 1%
IC50 (OVXF 899; read-out: Rel. IC50): 0.522 µM
Top (%) (OVXF 899; top plateau of curve): 107%
Rel. IC70 (OVXF A2780): 1.872 µM
Test/Control (%) (OVXF A2780; 0.003 μM): 101%
Test/Control (%) (OVXF A2780; 0.03 μM): 94%
Test/Control (%) (OVXF A2780; 0.3 μM): 101%
Test/Control (%) (OVXF A2780; 3 μM): 1%
Test/Control (%) (OVXF A2780; 30 μM): 0%
Abs. IC70 (OVXF A2780; T/C=30%): 1.868 µM
IC50 (OVXF A2780; T/C=50%, read-out: Abs. IC50): 1.69 µM
Bot. (%) (OVXF A2780; bottom plateau of curve): 0%
IC50 (OVXF A2780; read-out: Rel. IC50): 1.7 µM
Top (%) (OVXF A2780; top plateau of curve): 99%
Absolute IC70 (MAXFTN 401): 0.503 µM
Relative IC70 (MAXFTN 401): 0.5 µM
T/C % (MAXFTN 401; 0.03 μM): 99%
T/C % (MAXFTN 401; 0.095 μM): 99%
T/C % (MAXFTN 401; 0.3 μM): 87%
T/C % (MAXFTN 401; 0.95 μM): 3%
T/C % (MAXFTN 401; 3.0 μM): 1%
IC50 (MAXFTN 401; read-out: Absolute IC50): 0.429 µM
IC50 (MAXFTN 401; read-out: Relative IC50): 0.429 µM
Absolute IC70 (PRXF DU-145): 1.528 µM
Relative IC70 (PRXF DU-145): 1.376 µM
T/C % (PRXF DU-145; 0.03 μM): 100%
T/C % (PRXF DU-145; 0.095 μM): 110%
T/C % (PRXF DU-145; 0.3 μM): 102%
T/C % (PRXF DU-145; 0.95 μM): 11%
T/C % (PRXF DU-145; 3.0 μM): 6%
IC50 (PRXF DU-145; read-out: Absolute IC50): 1.09 µM
IC50 (PRXF DU-145; read-out: Relative IC50): 1.01 µM
Absolute IC70 (PRXF PC-3): 1.349 µM
Relative IC70 (PRXF PC-3): 1.326 µM
T/C % (PRXF PC-3; 0.03 μM): 104%
T/C % (PRXF PC-3; 0.095 μM): 103%
T/C % (PRXF PC-3; 0.3 μM): 103%
T/C % (PRXF PC-3; 0.95 μM): 2%
T/C % (PRXF PC-3; 3.0 μM): 1%
IC50 (PRXF PC-3; read-out: Absolute IC50): 1.1 µM
IC50 (PRXF PC-3; read-out: Relative IC50): 1.08 µM
anti-cancer activity, concentration dependence ([1]; all of the 20 human cancer cell lines tested): concentration dependent anti-cancer activity
anti-cancer activity ([1]; at concentration of 0.95 μM, 20 human cancer-cell lines, nine cancer types): significant anti-cancer activity
geometric mean absolute IC70 [1, 2]: 0.712 µM
geometric mean relative IC70 [1, 2]: 0.675 µM
IC50 ([1]; geometric mean over human cancer cell lines of Table 8, read-out: geometric mean absolute IC50): 0.596 µM and 0.6 µM
IC50 ([1]; geometric mean over human cancer cell lines of Table 8, read-out: geometric mean relative IC50): 0.583 µM
